Target: Hepatocyte growth factor receptor (Homo sapiens, UniProt P08581)
Test: Kinase Assay: The inhibitory effect of the compounds of the present invention on the activity of c-Met was confirmed as follows.Specifically, 250 μM G4Y1 peptide, which serves as a substrate for c-Met enzyme (2 ng/μL), and 50 μM ATP were subjected to an enzyme reaction in a reaction buffer (40 mM Tris-HCl (pH 7.5), 20 mM MgCl2, 0.1 mg/mL bovine serum albumin, and 50 μM DTT). The compounds prepared in Examples and comparative compounds were treated at various concentrations and reacted at room temperature for 1 hour, sequentially added with ADP-Glo™ Reagent and the Kinase detection reagent, and reacted at room temperature for 40 minutes and 30 minutes, respectively.

Sequence of Hepatocyte growth factor receptor (P08581 whole entry): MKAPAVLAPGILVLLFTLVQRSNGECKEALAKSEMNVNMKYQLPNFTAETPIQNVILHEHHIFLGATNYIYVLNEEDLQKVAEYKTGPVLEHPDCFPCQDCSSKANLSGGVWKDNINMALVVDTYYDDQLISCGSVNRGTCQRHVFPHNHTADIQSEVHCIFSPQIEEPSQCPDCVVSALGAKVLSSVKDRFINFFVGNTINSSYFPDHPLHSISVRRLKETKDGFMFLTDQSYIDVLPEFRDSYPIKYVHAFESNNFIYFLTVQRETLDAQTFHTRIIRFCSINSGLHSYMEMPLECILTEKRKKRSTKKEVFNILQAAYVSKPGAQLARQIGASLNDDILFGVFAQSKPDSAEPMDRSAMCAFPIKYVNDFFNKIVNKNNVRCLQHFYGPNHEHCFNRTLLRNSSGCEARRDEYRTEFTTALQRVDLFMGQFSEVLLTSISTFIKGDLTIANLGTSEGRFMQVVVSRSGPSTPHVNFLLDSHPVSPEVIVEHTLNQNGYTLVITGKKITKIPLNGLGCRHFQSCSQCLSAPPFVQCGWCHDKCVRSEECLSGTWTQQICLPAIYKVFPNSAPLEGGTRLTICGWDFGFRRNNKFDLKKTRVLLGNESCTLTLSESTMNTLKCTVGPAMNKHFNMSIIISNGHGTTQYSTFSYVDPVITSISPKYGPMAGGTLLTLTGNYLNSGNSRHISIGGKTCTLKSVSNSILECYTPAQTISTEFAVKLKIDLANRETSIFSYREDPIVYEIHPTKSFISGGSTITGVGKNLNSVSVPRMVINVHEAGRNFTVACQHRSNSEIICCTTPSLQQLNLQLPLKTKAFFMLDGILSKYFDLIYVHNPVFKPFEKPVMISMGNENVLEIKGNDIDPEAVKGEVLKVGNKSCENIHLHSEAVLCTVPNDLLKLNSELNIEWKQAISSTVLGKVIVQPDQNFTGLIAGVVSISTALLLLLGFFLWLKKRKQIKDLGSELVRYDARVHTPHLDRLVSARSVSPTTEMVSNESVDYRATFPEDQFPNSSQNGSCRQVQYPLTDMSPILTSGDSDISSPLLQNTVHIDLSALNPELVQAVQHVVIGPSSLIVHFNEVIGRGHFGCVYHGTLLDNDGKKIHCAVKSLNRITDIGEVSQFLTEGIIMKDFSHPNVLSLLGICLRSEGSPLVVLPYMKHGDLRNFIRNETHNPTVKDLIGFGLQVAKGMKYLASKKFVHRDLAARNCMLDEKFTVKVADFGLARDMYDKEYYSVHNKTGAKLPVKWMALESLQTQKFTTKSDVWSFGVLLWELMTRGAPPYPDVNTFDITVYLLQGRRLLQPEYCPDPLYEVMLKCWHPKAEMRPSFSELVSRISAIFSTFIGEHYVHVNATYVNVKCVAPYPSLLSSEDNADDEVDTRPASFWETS

Structure (SMILES)	IC50
CN(C)Cc1ccc(F)c(-c2ccn3nccc(Oc4ccc(NC(=O)C5(C(=O)Nc6ccc(F)cc6)CC5)cc4F)c23)c1	< 40 nM
CCNc1cccc(-c2ccn3nccc(Oc4ccc(NC(=O)C5(C(=O)Nc6ccc(F)cc6)CC5)cc4F)c23)c1	< 40 nM
N#Cc1cc(N)cc(-c2ccn3nccc(Oc4ccc(NC(=O)C5(C(=O)Nc6ccc(F)cc6)CC5)cc4F)c23)c1	< 40 nM
CCNCc1cccc(-c2ccn3nccc(Oc4ccc(NC(=O)C5(C(=O)Nc6ccc(F)cc6)CC5)cc4F)c23)c1	< 40 nM
CN(C)Cc1cc(F)cc(-c2ccn3nccc(Oc4ccc(NC(=O)C5(C(=O)Nc6ccc(F)cc6)CC5)cc4F)c23)c1	< 40 nM
CN(C)Cc1ccc(Cl)c(-c2ccn3nccc(Oc4ccc(NC(=O)C5(C(=O)Nc6ccc(F)cc6)CC5)cc4F)c23)c1	< 40 nM

The remaining lines, values ahead:

IC50	Structure (SMILES)
< 40 nM	CN(C)Cc1cccc(-c2ccn3nccc(Oc4ccc(NC(=O)C5(C(=O)Nc6ccc(F)cc6)CC5)cc4F)c23)c1
< 40 nM	CNCc1cccc(-c2ccn3nccc(Oc4ccc(NC(=O)C5(C(=O)Nc6ccc(F)cc6)CC5)cc4F)c23)c1
< 40 nM	NCc1cccc(-c2ccn3nccc(Oc4ccc(NC(=O)C5(C(=O)Nc6ccc(F)cc6)CC5)cc4F)c23)c1
< 40 nM	N#CCc1cccc(-c2ccn3nccc(Oc4ccc(NC(=O)C5(C(=O)Nc6ccc(F)cc6)CC5)cc4F)c23)c1

Reference: ChEMBL document CHEMBL5726595, “Protein kinase inhibitor containing pyrrolopyridazine derivative” (2017)
